Assay [1] concerns the target Cyclin-dependent kinase 2/cyclin E1 (Homo sapiens, UniProt P24941). Put plainly: Inhibition of CDK2/Cyclin E1 (unknown origin) pre-incubated for 10 mins followed by ATP/substrate addition and measured after 60 mins by ADP-Glo assay. The format is protein-complex assay. On the technique in general: In ADP-Glo the light output rises with the ADP produced.
Assay [2] is described as follows: Antiproliferative activity against CCNE1-amplified human OVCAR-3 cells assessed as cell growth inhibition incubated for 3 days by CCK8 assay. The format is functional, cell-based. The settings on record: OVCAR-3, 72 h. A general note: Tetrazolium assays rely on reduction of a dye to a coloured formazan, in cell work by metabolically active cells.
The subject of assay [3] is OVCAR-3. In words: Induction of cell cycle arrest in human OVCAR-3 cells assessed as accumulation of cells at G1 phase at 2 uM incubated for 24 hrs by flow cytometry analysis (reference value: 67.73%). It counts as functional.
The subject of assay [4] is OVCAR-3. Put plainly: Induction of cell cycle arrest in human OVCAR-3 cells assessed as accumulation of cells at G2 phase at 2 uM incubated for 24 hrs by flow cytometry analysis (reference value: 21.77%). It counts as functional.
Assay [5] relates to OVCAR-3. Put plainly: Induction of apoptosis in human OVCAR-3 cells assessed as viable cells at 2 uM incubated for 24 hrs by Annexin V-FITC/PI staining based flow cytometry analysis (reference value: 95.2%). The settings on record: read-out: Activity. The format is functional. On the technique in general: Flow cytometry measures light scatter and fluorescence of single cells or particles in a stream.

For assay [6], the system named is OVCAR-3. Put plainly: Induction of apoptosis in human OVCAR-3 cells assessed as early apoptotic cells at 2 uM incubated for 24 hrs by Annexin V-FITC/PI staining based flow cytometry analysis (reference value: 1.25%). The format is functional.
Assay [7] concerns OVCAR-3. Put plainly: Induction of apoptosis in human OVCAR-3 cells assessed as late apoptotic cells at 2 uM incubated for 24 hrs by Annexin V-FITC/PI staining based flow cytometry analysis (reference value: 2.67%). The format is functional.
The subject of assay [8] is OVCAR-3. In words: Induction of apoptosis in human OVCAR-3 cells assessed as necrotic cells at 2 uM incubated for 24 hrs by Annexin V-FITC/PI staining based flow cytometry analysis (reference value: 0.87%). The format is functional.
In a further assay the test system is MCF7. Put plainly: Antiproliferative activity against wild type human MCF7 cells assessed as cell growth inhibition. It counts as functional, cell-based.
Assay [9] is described as follows: Antiproliferative activity against Palbociclib-resistance human MCF7 cells assessed as cell growth inhibition. The format is functional, cell-based, Palbociclib-resistant MCF7 cell.

For orientation: IC50 means the midpoint of a concentration-inhibition curve. For `CC(C)n1cc(-c2nc(NC3CCN(S(C)(=O)=O)CC3)ncc2F)cc(F)c1=O`, the 50% inhibitory concentration (IC50) in assay [1] was 0.004 µM.

Molecule `COCCS(=O)(=O)N1CCC(Nc2ncc(F)c(-c3cc(F)c(=O)n(C(C)C)c3)n2)CC1` registered an IC50 in assay [1] of 0.007 µM. In turn, `Cc1cc(-c2nc(NC3CCN(S(C)(=O)=O)CC3)ncc2F)cn(C(C)C)c1=O` displayed a 50% inhibitory concentration (IC50) in assay [1] of 0.222 µM. Same read-out and setting: under `CCn1cc(-c2nc(NC3CCN(S(C)(=O)=O)CC3)ncc2F)cc(F)c1=O` stands 0.023 µM; under `CC(C)n1cc(-c2nc(NC3CCN(S(=O)(=O)C4CC4)CC3)ncc2F)cc(F)c1=O`, 0.005 µM; under `Cc1cc(-c2nc(NC3CCN(S(C)(=O)=O)CC3)ncc2F)cnc1OC(C)C`, 0.166 µM. On the same count and under the same terms, under `CCC(C)n1cc(-c2nc(NC3CCN(S(C)(=O)=O)CC3)ncc2F)cc(F)c1=O` (stereo not drawn) stands 0.003 µM; under `CCS(=O)(=O)N1CCC(Nc2ncc(F)c(-c3cc(F)c(=O)n(C(C)C)c3)n2)CC1`, 0.006 µM. Same read-out and setting: under `CCCS(=O)(=O)N1CCC(Nc2ncc(F)c(-c3ccc(=O)n(C(C)C)c3)n2)CC1` stands 0.007 µM; under `CC(C)Oc1ncc(-c2nc(NC3CCN(S(=O)(=O)C(C)C)CC3)ncc2F)cc1F`, 0.216 µM; under `CC(C)n1cc(-c2nc(NC3CCN(S(=O)(=O)C(C)C)CC3)ncc2F)cc(F)c1=O`, 0.008 µM.

Turning to `CC(C)Oc1ncc(-c2nc(NC3CCN(S(C)(=O)=O)CC3)ncc2F)cc1F`, the IC50 in assay [1] amounted to 0.073 µM. In [1], `CCCCn1cc(-c2nc(NC3CCN(S(C)(=O)=O)CC3)ncc2F)cc(F)c1=O` registered an IC50 of 0.013 µM. The same measure, in the same setting: under `COc1cnc(NC2CCN(S(C)(=O)=O)CC2)nc1-c1cnc(OC(C)C)c(F)c1` stands 0.341 µM; under `CCCS(=O)(=O)N1CCC(Nc2ncc(F)c(-c3cnc(OC(C)C)c(F)c3)n2)CC1`, 0.13 µM; under `CC(C)n1cc(-c2nc(NC3CCN(S(C)(=O)=O)CC3)ncc2F)ccc1=O`, 0.007 µM. On the same count and under the same terms, with `CC(C)n1cc(-c2nc(NC3CCN(C(=O)OC(C)(C)C)CC3)ncc2F)ccc1=O` the figure was 0.139 µM; with `CCC(C)n1cc(-c2nc(NC3CCN(S(=O)(=O)CCOC)CC3)ncc2F)cc(F)c1=O` (stereo not drawn), 0.005 µM. Take `COCCS(=O)(=O)N1CCC(Nc2ncc(F)c(-c3ccc(=O)n(C(C)C)c3)n2)CC1`: in [1], the 50% inhibitory concentration (IC50) amounted to 0.01 µM. On the same count and under the same terms, with `CC(C)=CCn1cc(-c2nc(NC3CCN(S(C)(=O)=O)CC3)ncc2F)cc(F)c1=O` the figure was 0.015 µM; with `CC(C)Oc1ncc(-c2ccnc(NC3CCN(S(C)(=O)=O)CC3)n2)cc1F`, 0.81 µM; with `CCS(=O)(=O)N1CCC(Nc2ncc(F)c(-c3cnc(OC(C)C)c(F)c3)n2)CC1`, 0.113 µM. Still for that read-out and setting: under `CC(=O)N1CCC(Nc2ncc(F)c(-c3ccc(=O)n(C(C)C)c3)n2)CC1` stands 0.063 µM.

`CC(C)Cn1cc(-c2nc(NC3CCN(S(C)(=O)=O)CC3)ncc2F)cc(F)c1=O` registered a half-inhibitory concentration (IC50) in [1] of 0.012 µM. In the case of `FC(F)Oc1cc(Nc2cnc3cnn(CC4CCOCC4)c3n2)n[nH]1` [CERTOCICLIB], the IC50 in [2] was found to be 2.31 µM. The Activity in the assay on OVCAR-3 [3] is recorded as 95.66%; with OVCAR-3 [4], 2.64%; in the assay with OVCAR-3 [6] it was 4.47%; with OVCAR-3 [7] it was 12.5%; in the assay with OVCAR-3 [8], 3.77%. Moreover, the viability at 2 µM in the assay on OVCAR-3 [5] was 79.3%. With `CC(=O)c1c(C)c2cnc(Nc3ccc(N4CCNCC4)cn3)nc2n(C2CCCC2)c1=O` [PALBOCICLIB], the values for the IC50 (with MCF7; in [9]) were 0.08 µM and 13.8 µM, respectively. `CC(C)Oc1ccc(-c2nc(NC3CCN(S(C)(=O)=O)CC3)ncc2F)cn1` came in with an IC50 in [1] of 0.093 µM. The same measure, in the same setting: under `Cc1nc(OC(C)C)ccc1-c1nc(NC2CCN(S(C)(=O)=O)CC2)ncc1F` stands 0.297 µM; under `CC(C)Oc1ncc(-c2nc(NC3CCN(S(C)(=O)=O)CC3)ncc2F)cc1C(=O)O`, 0.656 µM. With `CCC(C)n1cc(-c2nc(NC3CCN(S(=O)(=O)CC)CC3)ncc2F)cc(F)c1=O` (stereo not drawn), in assay [1], the 50% inhibitory concentration (IC50) was 0.007 µM. Same read-out and setting: under `COCCS(=O)(=O)N1CCC(Nc2ncc(F)c(-c3cnc(OC(C)C)c(F)c3)n2)CC1` stands 0.124 µM; under `CC(C)n1cc(-c2nc(NC3CCNCC3)ncc2F)ccc1=O`, more than 1 µM. In assay [1], `CC(C)n1cc(-c2nc(NC3CCN(S(=O)(=O)C(C)C)CC3)ncc2F)ccc1=O` showed an IC50 of 0.016 µM. Still for that read-out and setting: under `CCCS(=O)(=O)N1CCC(Nc2ncc(F)c(-c3cc(F)c(=O)n(C(C)C)c3)n2)CC1` stands 0.005 µM. The molecule `CC(C)n1cc(-c2nc(NC3CCN(S(=O)(=O)C(F)(F)F)CC3)ncc2F)ccc1=O` came in with a half-maximal inhibitory concentration (IC50) in assay [1] of 0.042 µM.

In assay [1], `Cn1cc(-c2nc(NC3CCN(S(C)(=O)=O)CC3)ncc2F)cc(F)c1=O` displayed an IC50 of 0.07 µM.

The values above are taken from ChEMBL document CHEMBL6177950, “Discovery of potent and selective CDK2 inhibitors with high safety and favorable bioavailability for the treatment of cancer” (Eur J Med Chem, 2025).
